From the supplement of paper PMC10307832

Experiments:
Test in all cases: relative viability (nuclei count vs DMSO), 5 days (fraction); higher = more cells survive
[1] = compound: N=C1NC(=O)/C(=C/c2ccc(O)cc2)S1 [Mirin] + Nc1nc2[nH]cc(CCc3ccc(C(=O)N[C@@H](CCC(=O)O)C(=O)O)cc3)c2c(=O)[nH]1 [Pemetrexed] (partner 0.2 µM)
Outline: (§1)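 Each reported value is a median over duplicate plates. It expresses relative viability: treated-well nuclei count divided by vehicle-well nuclei count. Lung cancer cell lines in 1536-well plates were dosed by pin tool a day after seeding, alone with one drug or with a fixed anchor-drug dose plus five library-drug doses (not always all listed) in √10 steps, and nuclei were counted after 5 days.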

[2] = compound: N=C1NC(=O)/C(=C/c2ccc(O)cc2)S1 [Mirin] + CC1(C)CCC(c2ccc(Cl)cc2)=C(CN2CCN(c3ccc(C(=O)NS(=O)(=O)c4ccc(N[C@H](CCN5CCOCC5)CSc5ccccc5)c(S(=O)(=O)C(F)(F)F)c4)cc3)CC2)C1 [Navitoclax] (partner 0.5 µM)
Outline: as §1

[3] = compound: CCn1c(-c2nonc2N)nc2cnc(Oc3cccc(NC(=O)c4ccc(OCCN5CCOCC5)cc4)c3)cc21 + Cc1cc(Nc2cc(N3CCN(C)CC3)nc(Sc3ccc(NC(=O)C4CC4)cc3)n2)n[nH]1 [Tozasertib] (partner 0.1 µM)
Outline: as §1

[4] = compound: CCn1c(-c2nonc2N)nc2cnc(Oc3cccc(NC(=O)c4ccc(OCCN5CCOCC5)cc4)c3)cc21 + CC(C)C[C@H](NC(=O)[C@H](Cc1ccccc1)NC(=O)c1cnccn1)B(O)O [Bortezomib] (partner 0.002 µM)
Outline: as §1

Cell Line | relative viability ([1]; first compound 0.25 µM) | relative viability ([1]; first compound 0.7906 µM) | relative viability ([1]; first compound 2.5 µM) | relative viability ([1]; first compound 7.906 µM) | relative viability ([1]; first compound 25 µM) | relative viability ([2]; first compound 0.25 µM) | relative viability ([2]; first compound 0.7906 µM) | relative viability ([2]; first compound 2.5 µM) | relative viability ([2]; first compound 7.906 µM) | relative viability ([2]; first compound 25 µM) | relative viability ([3]; first compound 0.04 µM) | relative viability ([3]; first compound 0.1265 µM) | relative viability ([3]; first compound 0.4 µM) | relative viability ([3]; first compound 1.265 µM) | relative viability ([3]; first compound 4 µM) | relative viability ([4]; first compound 0.04 µM) | relative viability ([4]; first compound 0.1265 µM) | relative viability ([4]; first compound 0.4 µM) | relative viability ([4]; first compound 1.265 µM) | relative viability ([4]; first compound 4 µM)
NCI-H520 | 0.654 | 0.591 | 0.7 | 0.545 | 0.449 | 1.03 | 1.11 | 1.35 | 0.829 | 0.676 | 0.419 | 0.368 | 0.359 | 0.345 | 0.378 | 0.749 | 0.614 | 0.537 | 0.349 | 0.239
LCLC-97TM1 | 0.161 | 0.128 | 0.14 | 0.149 | 0.127 | 0.314 | 0.515 | 0.511 | 0.194 | 0.288 | 0.201 | 0.271 | 0.192 | 0.249 | 0.222 | 0.662 | 0.896 | 0.397 | – | 0.247
COR-L23 | 0.2 | 0.204 | 0.209 | 0.187 | 0.204 | 1.02 | 1.06 | 1.04 | 1.07 | 0.966 | 0.185 | 0.165 | 0.154 | 0.12 | 0.135 | 1.08 | 0.646 | 0.238 | 0.185 | 0.193
NCI-H1355 | 1.06 | 1.09 | 1.08 | 1 | 1.11 | 1 | 0.989 | 1.07 | 0.897 | 0.979 | 0.654 | 0.652 | 0.582 | 0.563 | 0.569 | 1.22 | 1.27 | 1.02 | 0.72 | 0.621
NCI-H1666 | 0.821 | 0.805 | 0.827 | 0.875 | 0.841 | 0.921 | 0.941 | 1.03 | 0.719 | 0.59 | 0.65 | 0.675 | 0.582 | 0.368 | 0.326 | 0.785 | 1.02 | 0.65 | 0.459 | 0.385
EPLC-272H | 0.371 | 0.307 | 0.309 | 0.323 | 0.192 | 1.08 | – | 1.09 | 0.965 | 0.808 | 0.152 | 0.394 | 0.26 | 0.306 | 0.223 | 1.02 | 1.21 | 0.841 | 0.645 | 0.783
ChaGo-K-1 | 0.263 | 0.252 | 0.255 | 0.259 | 0.256 | 0.974 | – | 0.997 | 0.849 | 0.85 | 0.242 | 0.244 | 0.232 | 0.211 | 0.165 | 1.45 | 0.892 | 0.752 | – | 0.688
NCI-H1651 | 0.241 | 0.532 | 0.599 | 0.532 | 0.612 | 1.01 | 0.97 | 1.01 | 0.826 | 0.836 | 0.556 | 0.733 | 0.718 | 0.528 | 0.334 | 0.9 | 0.94 | 0.824 | 0.496 | 0.86
NCI-H2087 | 0.69 | 0.715 | 0.66 | 0.678 | 0.708 | 1.01 | 1.21 | 0.944 | 1.27 | 1.03 | 0.252 | 0.243 | 0.218 | 0.152 | 0.142 | – | 0.591 | 0.778 | 0.473 | 0.459
HCC-44 | 0.604 | 0.835 | 0.677 | 0.633 | 0.694 | 1 | 0.967 | 0.916 | 0.945 | 0.989 | 0.841 | 0.146 | 0.373 | 0.225 | 0.188 | 0.889 | 0.902 | 0.56 | 0.305 | 0.248
RERF-LC-KJ | 0.429 | 0.514 | 0.485 | 0.49 | 0.42 | 0.979 | 0.862 | 0.989 | 1.08 | 1.1 | 0.528 | 0.318 | 0.283 | 0.249 | 0.217 | 1.32 | 1.31 | 1.01 | 0.731 | 0.754
LOU-NH91 | 0.375 | 0.389 | 0.357 | 0.399 | 0.376 | 0.681 | – | 0.673 | 0.718 | 0.76 | 0.631 | 0.518 | 0.45 | 0.353 | 0.369 | 0.561 | 0.526 | 0.439 | 0.343 | 0.377
PC-3 [JPC-3] | 1.11 | 1.03 | 1.22 | 1.2 | 1.29 | 0.826 | 0.813 | 0.812 | 0.869 | 0.904 | 0.94 | 0.866 | 1.03 | 0.861 | 0.77 | 0.958 | 0.867 | 0.727 | 0.772 | 0.63
NCI-H2126 | 0.754 | 0.574 | 0.758 | 0.855 | 0.686 | 0.811 | 0.81 | 0.819 | 0.852 | 0.85 | 0.898 | 0.849 | 0.861 | – | 0.378 | 1.14 | 1.13 | 0.918 | 1.08 | 1.08
LU99A | 0.159 | 0.204 | 0.186 | 0.137 | 0.17 | 0.706 | 0.677 | 0.92 | 0.742 | 0.542 | 0.293 | 0.295 | 0.295 | 0.233 | 0.199 | 1.03 | 0.97 | 0.86 | 0.783 | 0.589
BEN | 0.661 | 0.779 | 0.799 | 0.667 | 0.581 | 0.0987 | 0.0819 | 0.0674 | 0.0737 | 0.0559 | 0.453 | 0.415 | 0.518 | 0.494 | 0.357 | 0.747 | 0.655 | 0.321 | 0.306 | 0.303
